We go through one compound from ChEMBL document CHEMBL3526000 (Drug Metab Dispos, 2012).

This assay deals with T1, UDP-glucuronosyltransferase 2B7 (Homo sapiens, UniProt P16662).
T1 sequence (P16662 whole entry): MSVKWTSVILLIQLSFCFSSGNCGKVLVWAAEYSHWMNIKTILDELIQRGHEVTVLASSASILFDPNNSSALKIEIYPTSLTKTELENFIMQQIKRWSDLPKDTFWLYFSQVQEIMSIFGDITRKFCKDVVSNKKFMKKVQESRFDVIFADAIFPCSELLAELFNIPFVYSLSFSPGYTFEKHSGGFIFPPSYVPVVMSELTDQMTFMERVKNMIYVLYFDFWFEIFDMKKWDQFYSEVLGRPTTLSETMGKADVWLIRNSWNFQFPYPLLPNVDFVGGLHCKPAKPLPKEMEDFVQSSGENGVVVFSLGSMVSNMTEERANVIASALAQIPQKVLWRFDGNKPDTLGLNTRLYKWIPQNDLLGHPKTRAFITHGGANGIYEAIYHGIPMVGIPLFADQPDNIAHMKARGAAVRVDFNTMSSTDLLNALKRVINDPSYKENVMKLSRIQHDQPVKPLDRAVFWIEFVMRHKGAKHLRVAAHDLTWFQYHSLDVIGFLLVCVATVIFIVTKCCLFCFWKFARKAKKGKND
The assay is described as follows: Drug metabolism assessed as recombinant human UGT2B7 assessed as O-glucuronidation measured as inhibition constant at 10 to 400 uM incubated for 60 mins by LC-MS/MS analysis.

In general, Ki refers to the dissociation constant of the complex between target and ligand, obtained from inhibition or displacement.

With `O=C(CCCN1CCC(O)(c2ccc(Cl)cc2)CC1)c1ccc(F)cc1` [HALOPERIDOL], the Ki stood at 590 µM.
